Test results from paper PMC9945734 (BMC Medicine, 2023).

System: PC-3-KQ and PC-3-KR cells
Experiment: RNA-sequencing and differential gene expression
Assay type: cell-based, human
Details: RNA-Seq, PC-3-KQ cells

CC(=O)Oc1ccccc1C(=O)Nc1ncc([N+](=O)[O-])s1 [Nitazoxanide]
BDKRB2 Change (KQ-Control vs KQ-NTZ): DOWN
BDKRB2 logFC (KQ-Control vs KQ-NTZ): -1.3479
BRINP2 Change (KQ-Control vs KQ-NTZ): DOWN
BRINP2 logFC (KQ-Control vs KQ-NTZ): -0.6846
BTBD11 Change (KQ-Control vs KQ-NTZ): DOWN
BTBD11 logFC (KQ-Control vs KQ-NTZ): -1.0629
C2orf78 Change (KQ-Control vs KQ-NTZ): DOWN
C2orf78 logFC (KQ-Control vs KQ-NTZ): -0.8606
CACNG8 Change (KQ-Control vs KQ-NTZ): DOWN
CACNG8 logFC (KQ-Control vs KQ-NTZ): -1.0729
CAPSL Change (KQ-Control vs KQ-NTZ): DOWN
CAPSL logFC (KQ-Control vs KQ-NTZ): -0.8068
CD14 Change (KQ-Control vs KQ-NTZ): DOWN
CD14 logFC (KQ-Control vs KQ-NTZ): -2.3874
CEP19 Change (KQ-Control vs KQ-NTZ): DOWN
CEP19 logFC (KQ-Control vs KQ-NTZ): -0.5995
CNTNAP3B Change (KQ-Control vs KQ-NTZ): DOWN
CNTNAP3B logFC (KQ-Control vs KQ-NTZ): -1.4339
COL4A6 Change (KQ-Control vs KQ-NTZ): DOWN
COL4A6 logFC (KQ-Control vs KQ-NTZ): -0.6049
CSF3 Change (KQ-Control vs KQ-NTZ): DOWN
CSF3 logFC (KQ-Control vs KQ-NTZ): -0.9191
CXCL5 Change (KQ-Control vs KQ-NTZ): DOWN
CXCL5 logFC (KQ-Control vs KQ-NTZ): -1.0464
DEPTOR Change (KQ-Control vs KQ-NTZ): DOWN
DEPTOR logFC (KQ-Control vs KQ-NTZ): -0.7982
DMC1 Change (KQ-Control vs KQ-NTZ): DOWN
DMC1 logFC (KQ-Control vs KQ-NTZ): -0.9749
DRP2 Change (KQ-Control vs KQ-NTZ): DOWN
DRP2 logFC (KQ-Control vs KQ-NTZ): -1.0796
ECM2 Change (KQ-Control vs KQ-NTZ): DOWN
ECM2 logFC (KQ-Control vs KQ-NTZ): -0.755
EFCAB6 Change (KQ-Control vs KQ-NTZ): DOWN
EFCAB6 logFC (KQ-Control vs KQ-NTZ): -0.8325
FAM43A Change (KQ-Control vs KQ-NTZ): DOWN
FAM43A logFC (KQ-Control vs KQ-NTZ): -1.1246
FAM83D Change (KQ-Control vs KQ-NTZ): DOWN
FAM83D logFC (KQ-Control vs KQ-NTZ): -0.5981
FAM186B Change (KQ-Control vs KQ-NTZ): DOWN
FAM186B logFC (KQ-Control vs KQ-NTZ): -0.6856
FANCI Change (KQ-Control vs KQ-NTZ): DOWN
FANCI logFC (KQ-Control vs KQ-NTZ): -0.7453
FANCL Change (KQ-Control vs KQ-NTZ): DOWN
FANCL logFC (KQ-Control vs KQ-NTZ): -0.6097
FCGBP Change (KQ-Control vs KQ-NTZ): DOWN
FCGBP logFC (KQ-Control vs KQ-NTZ): -2.5743
FLI1 Change (KQ-Control vs KQ-NTZ): DOWN
FLI1 logFC (KQ-Control vs KQ-NTZ): -0.8219
FLRT1 Change (KQ-Control vs KQ-NTZ): DOWN
FLRT1 logFC (KQ-Control vs KQ-NTZ): -0.8174
FLT1 Change (KQ-Control vs KQ-NTZ): DOWN
FLT1 logFC (KQ-Control vs KQ-NTZ): -0.8
FOXI1 Change (KQ-Control vs KQ-NTZ): DOWN
FOXI1 logFC (KQ-Control vs KQ-NTZ): -1.9605
FOXP3 Change (KQ-Control vs KQ-NTZ): DOWN
FOXP3 logFC (KQ-Control vs KQ-NTZ): -1.1132
FSD2 Change (KQ-Control vs KQ-NTZ): DOWN
FSD2 logFC (KQ-Control vs KQ-NTZ): -1.2199
FZD4 Change (KQ-Control vs KQ-NTZ): DOWN
FZD4 logFC (KQ-Control vs KQ-NTZ): -1.1759
GBX2 Change (KQ-Control vs KQ-NTZ): DOWN
GBX2 logFC (KQ-Control vs KQ-NTZ): -0.9793
GPR19 Change (KQ-Control vs KQ-NTZ): DOWN
GPR19 logFC (KQ-Control vs KQ-NTZ): -0.6847
GRAMD2A Change (KQ-Control vs KQ-NTZ): DOWN
GRAMD2A logFC (KQ-Control vs KQ-NTZ): -1.0971
H3C1 Change (KQ-Control vs KQ-NTZ): DOWN
H3C1 logFC (KQ-Control vs KQ-NTZ): -0.9324
HAS3 Change (KQ-Control vs KQ-NTZ): DOWN
HAS3 logFC (KQ-Control vs KQ-NTZ): -1.3005
HPSE2 Change (KQ-Control vs KQ-NTZ): DOWN
HPSE2 logFC (KQ-Control vs KQ-NTZ): -0.9315
HSD3B1 Change (KQ-Control vs KQ-NTZ): DOWN
HSD3B1 logFC (KQ-Control vs KQ-NTZ): -0.7148
IGF2BP1 Change (KQ-Control vs KQ-NTZ): DOWN
IGF2BP1 logFC (KQ-Control vs KQ-NTZ): -0.8373
IGFBP4 Change (KQ-Control vs KQ-NTZ): DOWN
IGFBP4 logFC (KQ-Control vs KQ-NTZ): -1.0441
IGSF23 Change (KQ-Control vs KQ-NTZ): DOWN
IGSF23 logFC (KQ-Control vs KQ-NTZ): -0.7201
